Assay results published in patent EP1059033A1, “INDUSTRIAL ANTIBACTERIAL/ANTIFUNGAL AGENTS, ALGICIDES AND ANTI-BIOLOGICAL ADHESION AGENTS CONTAINING BENZYLAMINES” (Nissan Chemical Industries, Ltd., priority 1998, dated 1999).
≈ marks a conversion by molar mass, not a printed value. Read-outs that look alike come from different tables or passages of the source.

What was measured:
Assay type in all cases: cell-based
[1] = tested on: Trichophyton mentagrophytes; conditions: 72 h, 100 ppm
Description: 31.3 ml of Trichophyton mentagrophytes to be tested was added to 125 ml of a potato dextrose agar culture medium (Nissui Seiyaku Co.). The medium was stirred not to foam the solutions, poured into plates uniformly and solidified.
Thereafter, predetermined amounts of the compounds of the invention were weighted and diluted with acetone to predetermined concentrations.
Paper disks were impregnated with samples containing predetermined amounts of the compounds of the invention, laid on a filter, dried with air and placed on a plate containing test microbe at equal intervals.
Trichophyton mentagrophytes was cultured at 28 °C for 3 days in a thermostatic chamber and the diameter of each inhibiting zone was measured to evaluate the activity of each compound. Symbols in the table mean the followings; • A: Trichophyton mentagrophytes, • ++: strongly inhibiting zone (equal to or more than 21 mm) is observed, • +: inhibiting zone (10 to 20 mm) is observed, • -: no inhibiting zone is observed.

[2] = tested on: freshwater green alga (Selenastrum capricornutum); assay: Inhibition of propagation of freshwater green alga (Example 4); conditions: after 72 hours, cell number vs non-treated lot; for inhibition at 0.05 ppm: 50ppb, read-out: Propagation inhibiting rate(%) 50ppb; for inhibition at 0.5 ppm: 500ppb, read-out: Propagation inhibiting rate(%) 500ppb
Description: A predetermined amount of each of the compounds of the invention was dissolved in a culture medium containing 10^5 /ml of a freshwater green alga (Selenastrum capricornutum) at a logarithmic growth phase to prepare samples having a concentration of the compound of the invention in the medium of 500 ppb and 50ppb respectively. The samples were stationary cultured at 23±1 °C for […] under continuous illumination.
After 72 hours, the number of cells was measured using a hemacytometer to obtain propagation rate. The propagation inhibiting rate was calculated from comparison with the non-treated lot.

[3] = tested on: Trichophyton mentagrophytes; assay: Agar dilution MIC (Example 2); conditions: 168 h, agar plate, 27 °C, 7 days
Description: (§1) Series of diluted samples (20000, 10000, 5000, 2500, 2000, 1250, 625, 313, 156, 78, 39, 20, 10, 5, 2.5, 1.25 mg/l) of the compounds of the invention were prepared using dimethylsulfoxide. A sensitive culture medium-N (Nissui Seiyaku Co.) was used for bacteria and a potato dextrose agar culture medium (Nissui Seiyaku Co.) was used for fungi. 0.5 ml of each sample was added to and mixed with 9.5 ml of the culture medium, poured into a Petri dish and solidified to obtain a plate. As a result, the concentration of the compounds of the invention in the agar culture medium were 1000, 500, 250, 125, 100, 62.5, 31.3, 15.6, 7.8, 3.9, 2.0, 1.0, 0.5, 0.25, 0.125, 0.062 mg/l. The bacterium inoculated were cultured in a bouillon for the assay of sensitivity (Nissui Seiyaku Co.) at 37 °C for 20 hours, and the fungi were cultured in the potato dextrose agar culture medium (Nissui Seiyaku Co.) for 10 days and then a 10^6 CFU/ml suspension was prepared from each of them. A test bacteria or fungi suspension was streaked on an agar plate containing the compound of the present invention with platinum wire loop, and the agar plate was cultured at 37±1 °C for 18 to 20 hours for bacteria or at 27 °C for 7 days for fungi. A concentration at which no growth was seen was taken as minimum inhibitory concentration [MIC(mg/l)]. Symbols in the table mean the followings; • A: Bacillus subtilis, • B: Trichophyton mentagrophytes, • C: Rhodotorula mucilaginosa.

[4] = tested on: Chaetomium globosum; assay: Agar dilution MIC (Example 3); conditions: 168 h, agar plate, 27 °C, 7 days
Description: (§2) Series of diluted samples (20000, 10000, 5000, 2500, 1250, 625, 313, 156, 78, 39 mg/l) of the compounds of the invention were prepared using dimethylsulfoxide. A sensitive culture medium-N (Nissui Seiyaku Co.) was used for bacteria and a potato dextrose agar culture medium (Nissui Seiyaku Co.) was used for fungi. 0.5 ml of each sample was added to and mixed with 9.5 ml of the culture medium, poured into a Petri dish and solidified to obtain a plate. As a result, the concentration of the compounds of the invention in the agar culture medium were 1000, 500, 250, 125, 62.5, 31.3, 15.6, 7.8, 3.9, 2.0 mg/l. The bacterium inoculated were cultured in a bouillon for the assay of sensitivity (Nissui Seiyaku Co.) at 37 °C for 20 hours, and the fungi were cultured in the potato dextrose agar culture medium (Nissui Seiyaku Co.) for 10 days and then a 10^6 CFU/ml suspension was prepared from each of them. A test bacteria or fungi suspension was streaked on an agar plate containing the compound of the present invention with platinum wire loop, and the agar plate was cultured at 37±1 °C for 18 to 20 hours for bacteria or at 27 °C for 7 days for fungi. A concentration at which no growth was seen was taken as minimum inhibitory concentration (MIC). Symbols in the tables mean the followings; • A: Bacillus subtilis, • B: Trichophyton mentagrophytes, • C: Staphylococcus aureus, • D: Aspergillus niger, • E: Penicillium funiculosum, • F: Candida albicans, • G: Micrococcus luteus, • H: Corynebacterium aquaticum, • I: Chaetomium globosum, • J: Fusarium moniliforme, • K: Saccharomyces cerevisiae, • L: Rhodotorula rubra, • M: Cladosporium cladosporioides, • N: Alternaria alternata.

[5] = tested on: Corynebacterium aquaticum; assay: Agar dilution MIC (Example 3); conditions: Leifsonia aquatica, agar plate, 37±1 °C, 18 to 20 hours
Description: as §2

[6] = tested on: Saccharomyces cerevisiae; assay: Agar dilution MIC (Example 3); conditions: 168 h, agar plate, 27 °C, 7 days
Description: as §2

[7] = tested on: freshwater blue-green alga (Microcystis aeruginosa); assay: Inhibition of propagation of freshwater algae (Example 6); conditions: 500ppb
Description: (§3) A predetermined amount each of the compounds of the invention was dissolved in a culture medium containing 10^5 /ml of a freshwater alga at a logarithmic growth phase to prepare samples having a concentration of the compound of the invention in the medium of 500 ppb and 50 ppb respectively. A shaking culture at 100 rpm was performed for […] under continuous illumination at 20±2 °C for freshwater diatom and at 23±2 °C for other algae.
(§4) After 72 hours and 168 hours, the […] of cells was measured using a hemacytometer to obtain propagation rate. The propagation inhibiting rate was calculated from comparison with the non-treated lot. Symbols in the tables mean the followings; • A: freshwater green alga (Chlorella pyrenoidosa), • B: freshwater blue-green alga (Microcystis aeruginosa), • C: freshwater diatom (Diatoma elongatum), • D: freshwater green alga (Scenedesmus pannonicus).

[8] = tested on: freshwater green alga (Scenedesmus pannonicus); assay: as above; conditions: Desmodesmus pannonicus, 500ppb
Description: as §3, §4

[9] = tested on: seawater diatom [Nitzschia closterium]; assay: Inhibition of propagation of seawater diatom (Example 5); conditions: Cylindrotheca closterium, 72 h, read-out: Propagation inhibiting rate(%) 500ppb
Description: A predetermined amount of each of the compounds of the invention was dissolved in culture media containing 10^5 /ml of a seawater diatom [Nitzschia closterium] at a logarithmic growth phase to prepare samples having a concentration of the compound in the medium of 500 ppb. The samples were stationary cultured at 22±1 °C for […] under continuous illumination.
After 72 hours, cells were collected by centrifugation and disrupted by addition of methanol to extract chlorophyll, and the amount of chlorophyll was measured from absorbance using a spectrophotometer to obtain propagation rate. The propagation inhibiting rate was calculated from comparison with the non-treated lot.

[10] = tested on: Rhodotorula mucilaginosa; assay: Agar dilution MIC (Example 2); conditions: 168 h, agar plate, 27 °C, 7 days
Description: as §1

[11] = tested on: freshwater diatom (Diatoma elongatum); assay: Inhibition of propagation of freshwater algae (Example 6); conditions: Diatoma tenuis; for inhibition at 0.05 ppm: 50ppb; for inhibition at 0.5 ppm: 500ppb
Description: as §3, §4

[12] = 72hr, read-out: Propagation inhibiting rate(%) 500ppb 72hr
[13] = 168hr, read-out: Propagation inhibiting rate(%) 500ppb 168hr
[14] = 168hr, read-out: Propagation inhibiting rate (%) 500ppb 168hr

| Structure (SMILES) | inhibition at 0.05 ppm [2] | inhibition at 0.5 ppm [2] | MIC [3] | other results |
| --- | --- | --- | --- | --- |
| CN(Cc1ccc(C(C)(C)C)cc1)Cc1cc(Cl)cc(Cl)c1 [Compound 1] | 79% | 94% | – | Judgment (Target bacteria: A) [1]: ++ (strongly inhibiting zone (equal to or more than 21 mm) is observed) |
| CN(Cc1ccc(C(C)(C)C)cc1)Cc1cccc(Cl)c1 [Compound 10] | 87% | 95% | 0.25 µg/mL (≈ 0.828 µM) | Judgment (Target bacteria: A) [1]: ++ (strongly inhibiting zone (equal to or more than 21 mm) is observed) |
| Cc1cccc(CN(C)Cc2ccc(C(C)(C)C)cc2)c1 [Compound 11] | 70% | 93% | < 1 µg/mL | MIC [4]: 63 µg/mL (≈ 224 µM); MIC [5]: 63 µg/mL (≈ 224 µM) |
| CN(Cc1ccc(C(C)(C)C)cc1)Cc1cccc(C(F)(F)F)c1 [Compound 12] | – | 90% | < 1 µg/mL | MIC [4]: 125 µg/mL (≈ 373 µM); MIC [6]: 125 µg/mL (≈ 373 µM) |
| COc1cccc(CN(C)Cc2ccc(C(C)(C)C)cc2)c1 [Compound 13] | – | 92% | < 1 µg/mL | MIC [5]: 63 µg/mL (≈ 212 µM) |
| Clc1ccc(CNCc2c(Cl)cccc2Cl)cc1Cl [Compound 15] | – | 94% | 3.9 µg/mL (≈ 11.6 µM) | inhibition at 0.5 ppm [7, 12]: 92%; inhibition at 0.5 ppm [7, 13]: 100%; inhibition at 0.5 ppm ([8]; 72hr, read-out: Propagation inhibiting rate (%) 500ppb 72hr): 95%; inhibition at 0.5 ppm [8, 14]: 98% |
| CN(Cc1ccc(C(C)(C)C)cc1)Cc1ccccc1Cl [Compound 17] | – | 83% | 1 µg/mL (≈ 3.31 µM) | – |
| CN(Cc1ccc(C(C)(C)C)cc1)Cc1ccc(Cl)cc1Cl [Compound 18] | – | – | 1 µg/mL (≈ 2.97 µM) | – |
| CN(Cc1ccc(C(C)(C)C)cc1)Cc1c(F)c(F)c(F)c(F)c1F [Compound 21] | – | – | 7.8 µg/mL (≈ 21.8 µM) | – |
| CN(Cc1ccc(C(C)(C)C)cc1)Cc1cc(Cl)ccc1Cl [Compound 22] | – | – | 1 µg/mL (≈ 2.97 µM) | – |
| CN(Cc1ccc(C(C)(C)C)cc1)Cc1cccc(Cl)c1Cl [Compound 24] | – | 85% | 0.125 µg/mL (≈ 0.372 µM) | – |
| CN(Cc1ccc(Cl)c(Cl)c1)C1CCc2ccccc21 (centres unmarked) [Compound 25] | – | 95% | 15.6 µg/mL (≈ 50.9 µM) | – |
| CN(Cc1ccc(C(C)(C)C)cc1)C1CCOc2ccccc21 (centres unmarked) [Compound 26] | – | – | 1 µg/mL (≈ 3.23 µM) | – |
| CC(C)c1ccc(CN(C)Cc2cccc3ccccc23)cc1 [Compound 29] | 95% | 96% | – | Judgment (Target bacteria: A) [1]: ++ (strongly inhibiting zone (equal to or more than 21 mm) is observed); inhibition at 0.5 ppm [9]: 76% |
| CN(Cc1ccc(C(C)(C)C)cc1)Cc1cccc2ccccc12 [Compound 30] | – | 94% | < 0.062 µg/mL | MIC [10]: 15.6 µg/mL (≈ 49.1 µM); Judgment (Target bacteria: A) [1]: ++ (strongly inhibiting zone (equal to or more than 21 mm) is observed) |
| CN(Cc1ccc(Cl)cc1)Cc1cccc2ccccc12 [Compound 31] | 88% | 95% | – | Judgment (Target bacteria: A) [1]: + (inhibiting zone (10 to 20 mm) is observed); inhibition at 0.5 ppm [7, 12]: 90%; inhibition at 0.5 ppm [7, 13]: 100%; inhibition at 0.05 ppm ([11]; 72hr, read-out: Propagation inhibiting rate(%) 50ppb 72hr): 61%; inhibition at 0.05 ppm ([11]; 168hr, read-out: Propagation inhibiting rate(%) 50ppb 168hr): 87%; inhibition at 0.5 ppm [11, 12]: 81%; inhibition at 0.5 ppm [11, 13]: 95%; inhibition at 0.5 ppm [8, 14]: 79% |
| CN(Cc1ccc(C(C)(C)C)cc1)Cc1c(Cl)ccc(Cl)c1Cl [Compound 33] | – | – | 1 µg/mL (≈ 2.7 µM) | – |
| CN(Cc1ccc(C(C)(C)CCl)cc1)Cc1cccc2ccccc12 [Compound 35] | 75% | 94% | 7.8 µg/mL (≈ 22.2 µM) | MIC [10]: 7.8 µg/mL (≈ 22.2 µM) |
| CCCCCCc1ccc(CN(C)Cc2cccc3ccccc23)cc1 [Compound 36] | – | 83% | 2 µg/mL (≈ 5.79 µM) | – |
| CN(Cc1ccc(Cl)c(Cl)c1)Cc1cccc2ccccc12 [Compound 37] | – | 69% | 0.5 µg/mL (≈ 1.51 µM) | – |
| COc1ccc(CN(C)Cc2cccc3ccccc23)cc1 [Compound 38] | – | 75% | 7.8 µg/mL (≈ 26.8 µM) | – |
| Cc1ccc(CN(C)Cc2cccc3ccccc23)cc1 [Compound 39] | – | 90% | 3.9 µg/mL (≈ 14.2 µM) | – |
| CN(Cc1cc(Cl)cc(Cl)c1)Cc1cccc2ccccc12 [Compound 40] | 61% | 61% | – | – |
| Cc1ccc(CN(C)Cc2cccc3ccccc23)cc1C [Compound 41] | 66% | 97% | 7.8 µg/mL (≈ 27 µM) | – |
| CN(Cc1ccc(F)c(F)c1)Cc1cccc2ccccc12 [Compound 45] | – | 87% | 15.6 µg/mL (≈ 52.5 µM) | – |
| CN(Cc1ccc(C#N)cc1)Cc1cccc2ccccc12 [Compound 46] | – | 96% | 15.6 µg/mL (≈ 54.5 µM) | – |
| CC(C)Oc1ccc(CN(C)Cc2cccc3ccccc23)cc1 [Compound 47] | 63% | 71% | 7.8 µg/mL (≈ 24.4 µM) | – |
| CN(Cc1c(Cl)cccc1Cl)Cc1cccc2ccccc12 [Compound 48] | – | 77% | – | inhibition at 0.5 ppm [9]: 77% |
| Cc1cccc(CN(C)Cc2cccc3ccccc23)c1 [Compound 50] | – | 93% | 15.6 µg/mL (≈ 56.6 µM) | – |
| CCCOc1ccc(CN(C)Cc2cccc3ccccc23)cc1 [Compound 51] | – | – | 15.6 µg/mL (≈ 48.8 µM) | – |
